Reference: US12161637B2, “Anti-cancer gold complex, process of synthesis and method of treatment thereof” (King Saud University, priority 2022, dated 2024)
Where two headings read alike, the source gives them in different places.

Key:
Assay type in all cases: cell-based
[1] = system: MCF-7 breast cancer cells; assay: Cell viability by MTT assay; conditions: read-out: IC50, cell viability (cytotoxicity)
Source text: Materials and methods: All organic ligands were purchased from Sigma-Aldrich and gold salts from Strom Chemicals USA. Breast cancer cell lines MCF-7 were obtained from American Type Culture Collection, ATCC (Virginia, USA). Dulbecco's Modified Eagle's Medium (DMEM), Fetal Bovine Serum (FBS), and 0.25% Trypsin 0.1% EDTA were obtained from Gibco (Grand Island, NY). The 3-(4,5-dimethylthiazol-2-yl)-2,5-diphenyltetrazolium bromide (MTT) and DMSO were purchased from Sigma-Aldrich (St. Louis, MO).
Cell viability was determined by 3-(4,5-dimethylthiazol-2-yl)-2,5-diphenyltetrazolium bromide (MTT) assay. Breast cancer cells, MCF-7, were seeded in a 96-well tissue culture plate at 10,000 cells/well in 200 μl of DMEM. […] Then, 20 μl of MTT (5 mg/mL) was added to the each well and incubated in a CO2 incubator at 37° C. in the dark for 3 h. After incubation, a purple-colored formazan dye is produced and appeared as dark crystals in the bottom of the wells. To dissolve the formazan crystals, the culture medium was discarded and 100 μL of isopropanol were added to each well. The absorbance was recorded at 570 nm against reagent blank. The cell viability was calculated by the formula below: Cell viability (%)=[Absorbance Compound/Absorbance DMSO]*100

MCF-7 cells [2] = assay: Oxidative stress analysis (ROS generation), Muse Oxidative Stress Kit, flow cytometry; conditions: 24 h
Procedure: The induction of oxidative stress via ROS generation endogenously in cancer cells is a potential target of anticancer agents. Oxidative stress causes irreversible cellular damage which induces apoptosis in concentration-dependent manner. MCF-7 cells were plated at 1.5×10^4 cells/well using a 6 well plate to estimate the generation of reactive oxygen species (ROS). […] DMSO was used as a negative control. The final DMSO concentration in each well was less than 0.1%. Then, the cells were harvested and stained with Muse® Oxidative Stress Kit (Luminex, IL, USA) following the manufacture's protocol. The percentage of cells that were undergoing oxidative stress was measured by flow cytometry.

[3] = system: MCF-7 breast cancer cell line; assay: Apoptosis analysis, Muse Annexin V Live & Dead Cell Kit, flow cytometry; conditions: 24 h, versus control
Procedure: MCF-7 cells were seeded in 6 well plates at 1.5×10^4 cells per well. […] DMSO was used as a negative control. The final DMSO concentration in each well was less than 0.1%. The harvested cells were stained with Annexin V-FITC and Dead Cell reagent following the manufacture's protocol. Then, the percentage of apoptotic cells was estimated by flow cytometry.

MCF-7 cells [4] = assay: Mitochondrial membrane potential analysis, Muse MitoPotential Kit, flow cytometry; conditions: for percentage of depolarized cancer cells (mitochondrial membrane potential): 24 h
Procedure: Mitochondrial membrane potential is an important parameter to assess the integrity of mitochondria, which is a potential target in cancer therapeutics. The loss of mitochondrial membrane potential has been known to be associated with early stages of apoptosis and reactive oxygen species (ROS) induction. To assess the mitochondrial membrane potential, Muse® MitoPotential Kit (Luminex, IL, USA) was used. MCF-7 cells were seeded in a 6 well plate at 1.5×10^4 cells/well. […] DMSO was used as a negative control. The final DMSO concentration in each well was less than 0.1%. Then, cells were stained with MitoPotential reagents following the manufacture's protocol. The percentage of depolarized/live cells was estimated by flow cytometry.

[5] = MCF-7, higher concentration (5 μM)
[6] = MCF-7, lower concentration (1 μM)

| SMILES | IC50 ([1]; MCF-7, 24 h treatment) [nM] | ROS generation (MCF-7 cells [2]; MCF-7, 1 μM) [%] | ROS generation (MCF-7 cells [2]; MCF-7, 5 μM) [%] | induction of apoptosis (early and late combined) ([3]; MCF-7, 1 μM) [folds] | induction of apoptosis (early and late combined) ([3]; MCF-7, 3 μM) [folds] | induction of apoptosis (early and late combined) ([3]; MCF-7, 10 μM) [folds] | mitochondrial membrane potential depolarization compared to positive control Sorafenib (MCF-7 cells [4]; MCF-7, 24 h) | percentage of depolarized cancer cells (mitochondrial membrane potential) (MCF-7 cells [4]; [5]) [%] | percentage of depolarized cancer cells (mitochondrial membrane potential) (MCF-7 cells [4]; [6]) [%] | IC50 ([1]; Homo sapiens, MCF7, MCF-7, 24 h treatment) [nM] |
| --- | --- | --- | --- | --- | --- | --- | --- | --- | --- | --- |
| O=Cc1ccnc(-c2cc(C=O)ccn2)c1.S=C([S][Au+2])N(Cc1ccccc1)Cc1ccccc1 [DDBDG, dibenzyldithiocarbamato-2,2′-bipyridine-4,4′-dicarboxaldehyde gold (III)] | 875 | 125.53 | 103.47 | 2.2 | 4.4 | 5.5 | roughly three-folds higher | 27.8 | 27.0 | – |
| CNC(=O)c1cc(Oc2ccc(NC(=O)Nc3ccc(Cl)c(C(F)(F)F)c3)cc2)ccn1 [Sorafenib, reference compound] | – | 73.76 | 122.11 | – | – | – | – | 12.0 | 2.7 | 4440 |
